# Measured values from patent US9376392B2, “2-(tert-butoxy)-2-(7-methylquinolin-6-yl) acetic acid derivatives for treating AIDS” (Gilead Sciences, Inc., priority 2012, dated 2016).
# pEC50: −log10 of the molar value.
# Tested on: HIV-IIIb (MT-4 cells)
# Assay: Test A: Antiviral Assays in MT4 Cells
# Format: cell-based
# Conditions: MT4, 120 h, MT-4 cells infected with HIV-IIIb, 5 days of incubation, CellTiter-Glo readout
# Procedure: The antiviral properties of a compound disclosed herein may be determined using Test A described below.
# Test A: Antiviral Assays in MT4 Cells
# For the antiviral assay utilizing MT-4 cells, 0.4 μL of […] test concentration of 3-fold serially diluted compound in DMSO was added to 40 μL of cell growth medium (RPMI 1640, 10% FBS, 1% penicillin/Streptomycin, 1% L-Glutamine, 1% HEPES) in each well of 384-well assay plates (10 concentrations) in quadruplicate.
# 1 mL aliquots of 2×10e6 MT-4 cells are pre-infected for 1 and 3 hrs respectively, @ 37° C. with 25 μL (MT4) or of either cell growth medium (mock-infected) or a fresh 1:250 dilution of an HIV-IIIb concentrated ABI stock (0.004 m.o.i. for MT4 cells). Infected and uninfected cells are diluted in cell growth medium and 35 μL of 2000 (for MT4) cells is added to each well of the assay plates.
# Assay plates were then incubated in a 37° C. incubator. After 5 days of incubation, […] 2× concentrated CellTiter-Glo™ Reagent (catalog #G7573, Promega Biosciences, Inc., Madison, Wis.) was added to each well of the assay plate. Cell lysis was carried out by incubating at room temperature for 2-3 min and then chemiluminescence was read using the Envision reader (PerkinElmer).
row,Compound,pEC50
1,"Cc1cc2nc(C(C)F)ccc2c(-c2ccc3c4c(ccnc24)CCO3)c1[C@H](OC(C)(C)C)C(=O)O (stereo partly drawn) [Example 53, (2S)-2-tert-Butoxy-2-((5R)-5-(2,3-dihydropyrano[4,3,2-de]quinolin-7-yl)-2-(1-fluoroethyl)-7-methylquinolin-6-yl)acetic acid]",7.66
2,"Cc1cc2c(ccc(=O)n2Cc2cnccn2)c(-c2ccc3c4c(ccnc24)CCO3)c1[C@H](OC(C)(C)C)C(=O)O (atropisomer, axis not shown) [Example 23, (S)-2-tert-Butoxy-2-((R)-5-(2,3-dihydropyrano[4,3,2-de]quinolin-7-yl)-7-methyl-2-oxo-1-(pyrazin-2-ylmethyl)-1,2-dihydroquinolin-6-yl)acetic acid]",6.42
3,"Cc1cc2c(ccc(=O)n2Cc2ccc(C(F)(F)F)cc2)c(-c2ccc3c4c(ccnc24)CCO3)c1[C@H](OC(C)(C)C)C(=O)O (atropisomer, axis not shown) [Example 11, (S)-2-tert-Butoxy-2-((R)-5-(2,3-dihydropyrano[4,3,2-de]quinolin-7-yl)-7-methyl-2-oxo-1-(4-(trifluoromethyl)benzyl)-1,2-dihydroquinolin-6-yl)acetic acid]",6.01
4,"Cc1cc2nc(OCc3ccc(S(C)(=O)=O)cc3)ccc2c(-c2ccc3c4c(ccnc24)CCO3)c1[C@H](OC(C)(C)C)C(=O)O (atropisomer, axis not shown) [Example 9, (S)-2-tert-Butoxy-2-((R)-5-(2,3-dihydropyrano[4,3,2-de]quinolin-7-yl)-7-methyl-2-(4-(methylsulfonyl)benzyloxy)quinolin-6-yl)acetic acid]",7.67
5,"Cc1cc2c(ccc(=O)n2Cc2cccc(C(F)(F)F)c2)c(-c2ccc3c4c(ccnc24)CCO3)c1[C@H](OC(C)(C)C)C(=O)O (atropisomer, axis not shown) [Example 5, (S)-2-tert-Butoxy-2-((R)-5-(2,3-dihydropyrano[4,3,2-de]quinolin-7-yl)-7-methyl-2-oxo-1-(3-(trifluoromethyl)benzyl)-1,2-dihydroquinolin-6-yl)acetic acid]",7.51
6,"Cc1cc2c(ccc(=O)n2Cc2cccc(OC(F)(F)F)c2)c(-c2ccc3c4c(ccnc24)CCO3)c1[C@H](OC(C)(C)C)C(=O)O (atropisomer, axis not shown) [Example 18, (S)-2-tert-Butoxy-2-((R)-5-(2,3-dihydropyrano[4,3,2-de]quinolin-7-yl)-7-methyl-2-oxo-1-(3-(trifluoromethoxy)benzyl)-1,2-dihydroquinolin-6-yl)acetic acid]",6.73
7,"Cc1cc2nc(C(C)(F)F)ccc2c(-c2ccc3c4c(ccnc24)CCO3)c1[C@H](OC(C)(C)C)C(=O)O (atropisomer, axis not shown) [Example 52, (S)-2-tert-Butoxy-2-((R)-2-(1,1-difluoroethyl)-5-(2,3-dihydropyrano[4,3,2-de]quinolin-7-yl)-7-methylquinolin-6-yl)acetic acid]",7.19
8,"CNc1ccc2c(-c3ccc4c5c(ccnc35)CCO4)c([C@H](OC(C)(C)C)C(=O)O)c(C)cc2n1 (atropisomer, axis not shown) [Example 46, (S)-2-tert-Butoxy-2-((R)-5-(2,3-dihydropyrano[4,3,2-de]quinolin-7-yl)-7-methyl-2-(methylamino)quinolin-6-yl)acetic acid]",6.58
9,"CC(=O)Nc1ccc2c(-c3ccc4c5c(ccnc35)CCO4)c([C@H](OC(C)(C)C)C(=O)O)c(C)cc2n1 (atropisomer, axis not shown) [Example 48, (S)-2-((R)-2-Acetamido-5-(2,3-dihydropyrano[4,3,2-de]quinolin-7-yl)-7-methylquinolin-6-yl)-2-tert-butoxyacetic acid]",6.44
10,"Cc1cc2c(ccc(=O)n2Cc2cccnc2)c(-c2ccc3c4c(ccnc24)CCO3)c1[C@H](OC(C)(C)C)C(=O)O (atropisomer, axis not shown) [Example 22, (S)-2-tert-Butoxy-2-((R)-5-(2,3-dihydropyrano[4,3,2-de]quinolin-7-yl)-7-methyl-2-oxo-1-(pyridin-3-ylmethyl)-1,2-dihydroquinolin-6-yl)acetic acid]",6.50
11,"Cc1cc2c(ccc(=O)n2Cc2ccccc2OC(F)(F)F)c(-c2ccc3c4c(ccnc24)CCO3)c1[C@H](OC(C)(C)C)C(=O)O (atropisomer, axis not shown) [Example 15, (S)-2-tert-Butoxy-2-((R)-5-(2,3-dihydropyrano[4,3,2-de]quinolin-7-yl)-7-methyl-2-oxo-1-(2-(trifluoromethoxy)benzyl)-1,2-dihydroquinolin-6-yl)acetic acid]",6.44
12,"Cc1cc2nc(OCc3ccccc3OC(F)(F)F)ccc2c(-c2ccc3c4c(ccnc24)CCO3)c1[C@H](OC(C)(C)C)C(=O)O (atropisomer, axis not shown) [Example 19, (S)-2-tert-Butoxy-2-((R)-5-(2,3-dihydropyrano[4,3,2-de]quinolin-7-yl)-7-methyl-2-(2-(trifluoromethoxy)benzyloxy)quinolin-6-yl)acetic acid]",7.15
13,"Cc1cc2nc(OCc3ccc(OC(F)(F)F)cc3)ccc2c(-c2ccc3c4c(ccnc24)CCO3)c1[C@H](OC(C)(C)C)C(=O)O (atropisomer, axis not shown) [Example 13, (S)-2-tert-Butoxy-2-((R)-5-(2,3-dihydropyrano[4,3,2-de]quinolin-7-yl)-7-methyl-2-(4-(trifluoromethoxy)benzyloxy)quinolin-6-yl)acetic acid]",6.55
14,"CCCCCC(C)(C)O[C@H](C(=O)O)c1c(C)cc2nc(C)ccc2c1-c1ccc2c3c(ccnc13)CCO2 (atropisomer, axis not shown) [Example 43, (S)-2-((S)-5-(2,3-Dihydropyrano[4,3,2-de]quinolin-7-yl)-2,7-dimethylquinolin-6-yl)-2-(2-methylheptan-2-yloxy)acetic acid]",4.40
15,"Cc1cc2c(ccc(=O)n2Cc2cccc(S(C)(=O)=O)c2)c(-c2ccc3c4c(ccnc24)CCO3)c1[C@H](OC(C)(C)C)C(=O)O (atropisomer, axis not shown) [Example 2, (S)-2-tert-Butoxy-2-((R)-5-(2,3-dihydropyrano[4,3,2-de]quinolin-7-yl)-7-methyl-1-(3-(methylsulfonyl)benzyl)-2-oxo-1,2-dihydroquinolin-6-yl)acetic acid]",6.34
16,"Cc1cccc(-n2c(=O)ccc3c(-c4ccc5c6c(ccnc46)CCO5)c([C@H](OC(C)(C)C)C(=O)O)c(C)cc32)c1 (atropisomer, axis not shown) [Example 35, (S)-2-tert-Butoxy-2-((R)-5-(2,3-dihydropyrano[4,3,2-de]quinolin-7-yl)-7-methyl-2-oxo-1-m-tolyl-1,2-dihydroquinolin-6-yl)acetic acid]",5.83
17,"COc1cccc(Cn2c(=O)ccc3c(-c4ccc5c6c(ccnc46)CCO5)c([C@H](OC(C)(C)C)C(=O)O)c(C)cc32)c1 (atropisomer, axis not shown) [Example 26, (S)-2-tert-butoxy-2-((R)-5-(2,3-dihydropyrano[4,3,2-de]quinolin-7-yl)-1-(3-methoxybenzyl)-7-methyl-2-oxo-1,2-dihydroquinolin-6-yl)acetic acid]",7.00
18,"Cc1cc2nc(OCc3cccc(OC(F)(F)F)c3)ccc2c(-c2ccc3c4c(ccnc24)CCO3)c1[C@H](OC(C)(C)C)C(=O)O (atropisomer, axis not shown) [Example 14, (S)-2-tert-Butoxy-2-((R)-5-(2,3-dihydropyrano[4,3,2-de]quinolin-7-yl)-7-methyl-2-(3-(trifluoromethoxy)benzyloxy)quinolin-6-yl)acetic acid]",6.66
19,"Cc1cc2nc(OCc3cccc(C(F)(F)F)c3)ccc2c(-c2ccc3c4c(ccnc24)CCO3)c1[C@H](OC(C)(C)C)C(=O)O (atropisomer, axis not shown) [Example 3, (S)-2-tert-Butoxy-2-((R)-5-(2,3-dihydropyrano[4,3,2-de]quinolin-7-yl)-7-methyl-2-(3-(trifluoromethyl)benzyloxy)quinolin-6-yl)acetic acid]",6.91

# Same assay, conditions: MT-4 cells infected with HIV-IIIb, 5 days of incubation, CellTiter-Glo readout
row,Compound,pEC50
1,"CCC(C)(C)O[C@H](C(=O)O)c1c(C)cc2nc(C)ccc2c1-c1ccc2c3c(ccnc13)CCO2 (atropisomer, axis not shown) [Example 45, (S)-2-((S)-5-(2,3-Dihydropyrano[4,3,2-de]quinolin-7-yl)-2,7-dimethylquinolin-6-yl)-2-(tert-pentyloxy)acetic acid]",4.88
2,"CCCC(C)(C)O[C@H](C(=O)O)c1c(C)cc2nc(C)ccc2c1-c1ccc2c3c(ccnc13)CCO2 (atropisomer, axis not shown) [Example 39, (2S)-2-((R)-5-(2,3-Dihydropyrano[4,3,2-de]quinolin-7-yl)-2,7-dimethylquinolin-6-yl)-2-(2-methylpentan-2-yloxy)acetic acid]",7.91
3,"CCC(C)(C)O[C@H](C(=O)O)c1c(C)cc2nc(C)ccc2c1-c1ccc2c3c(ccnc13)CCO2 (atropisomer, axis not shown) [Example 44, (S)-2-((R)-5-(2,3-Dihydropyrano[4,3,2-de]quinolin-7-yl)-2,7-dimethylquinolin-6-yl)-2-(tert-pentyloxy)acetic acid]",7.93
